How the values were obtained:
[1] = test system: rat pheochromocytoma cells transfected with the M1 mAChR
ApoE = ApoE synthesis and secretion in rat primary type 1 astrocytes; type: cell-based; conditions: 96 hrs; 0.1 nM
Description: Primary cultures of type 1 astrocytes were derived from the cortex of Sprague Dawley rats. The compounds tested were dissolved in the culture media and added to cells for 24, 48, 72 and 96 hrs. Media was then removed and kept frozen until ApoE protein levels were evaluated by immunoblot analysis as described in Poirier et al Neuroscience 55: 81-90 (1993).

tau = experiment: Tau phosphorylation, AT8 immunoblot; type: cell-based; conditions: 100 μM; to the control level
Source text: Following the experimental design of Sadot et al., J.Neurochem. […] By linking an M1 agonist to an antioxidant moiety tau phophorylation may be decreased, providing a new therapeutic strategy in a variety of CNS disease states due to combined damage due to oxidative stress and tau hyperphosphorylation.

[2] = Morris water maze in C57BL/10SnJ (small hippocampus) vs C57BL6J mice; type: in vivo; conditions: for reversal test, swimming speed: normal hippocampi mice, AF150(S) 0.5 mg/kg, AF267B 1 mg/kg
Description: C57BL/10SnJ (B10) mice were selected due to their small hippocampi and decreased number of hippocampal pyramidal neurons; the cell loss seemed to be associated with poor spatial learning.
Each group of mice was randomly divided into 7 treatment groups (n=12-14/group). […] All tested compounds and saline were administered once a day for 4 days before starting the behavioral testing, and then for the duration of the 5-day experiment, 30 minutes before testing.
Training: Each mouse was trained for four consecutive days, four trials (one block) per day, in which the platform position remained constant and was located in the center of the southeast quadrant of the pool. Within each block of four trials, each mouse started at each of the starting locations, but the sequence of locations was randomly selected. A trial consisted of placing a mouse by hand into the water facing the wall of the pool at one of four starting locations, north, south, east or west, around the pool's perimeter. Escape latency (the time to find the platform), path length (the distance traveled by the mouse) and speed (the swimming rate of the mouse) were recorded on each trial by the monitoring system.
For each mouse, the path length, escape latency, and swimming speed of the four trials on each of the 4 training days were grouped into blocks (one block for each day). […] Specific comparisons were performed, using the simple main effects contrasts analysis, which is specifically suited for testing significant interactions.
Transfer test. During trial No. 17, on the fourth day, the platform was entirely removed from the pool (a probe trial). In this trial, the mouse was placed into the water for a limited period (30 s), and its spatial bias was measured by recording the relative distribution of escape latency and path length over the four quadrants of the pool.
Reversal test. During trials 18-21, on the fifth day, the platform position was changed to the northwest quadrant, opposite to the training quadrant Thus, during reversal learning, the platform location was moved relative to the configuration of objects within the room, but the pool occupied the same place within the room throughout the entire experiment. Testing of the […] and measures taken were the same as in training.
For each mouse, the escape latency, path length and swimming speed of the reversal test (trials No. 18-21) were grouped into one block.

[3] = small hippocampus mice, AF compounds 0.5 and 1 mg/kg i.p., rivastigmine, nicotine 1 mg/kg i.p.

CCC1SC2(CCN(C)CC2)N(CCc2c[nH]c3ccccc23)C1=O (stereo not shown) [AF703, 2-Ethyl-4-[2-(1H-indol-3-yl)ethyl]-8-methyl-1-thia-4,8-diaza-spiro[4.5]decan-3-one]
β-A25-35-induced cytotoxicity [1]: more effective than carbachol and AF267B

CC1OC2(CS1)CN1CCC2CC1 (stereo not shown) [AF102B, reference compound]
inhibition of ApoE production (ApoE): inactive

CC[C@@H]1SC2(CCN(C)CC2)N(S(=O)(=O)c2ccc(F)cc2)C1=O [AF700, (S)-2-Ethyl-4-(4-fluoro-benzenesulfonyl)-8-methyl-1-thia-4,8diaza-spiro[4.5]decan-3-one]
β-A25-35-induced cytotoxicity [1]: more effective than carbachol and AF267B

CCC1SC2(CCN(C)CC2)N(C(=O)CCc2c[nH]c3ccccc23)C1=O (racemic) [AF704, 2-Ethyl-4(3-1H-indol-3-yl-propionyl)-8-methyl-1-thia-4,8-diaza-spiro[4.5]decan-3-one]
phosphorylated tau (AT8) (tau): induce dephosphorylation of tau proteins | β-A25-35-induced cytotoxicity [1]: more effective than carbachol and AF267B

(S)-Ethyl-4-(3-1H-indol-3-yl-propionyl)-8-methyl-1-thia-4,8-diaza-spiro[4.5]decan-3-one [AF704B]
phosphorylated tau (AT8) (tau): induce dephosphorylation of tau proteins

CN1CCCC1c1cccnc1 (stereo not shown) [nicotine, reference compound]
reversal test, swimming speed [2]: significantly decreased | training, escape latency ([2]; normal hippocampus mice): degraded the performance | training, swimming speed ([2]; normal hippocampus mice): significantly decreased the swimming speed | reversal test, escape latency ([2]; normal hippocampus mice, AF150(S) at 0.5 mg/kg): no significant effect | training, swimming speed ([2]; small hippocampus mice): Neither rivastigmine nor nicotine had any significant effect | transfer test, spatial bias ([2]; small hippocampus mice): only a partial spatial bias | training, escape latency [2, 3]: no improving effect

CCN(C)C(=O)Oc1cccc([C@H](C)N(C)C)c1 [rivastigmine, reference compound]
reversal test, swimming speed [2]: significantly decreased | training, swimming speed ([2]; normal hippocampus mice): significantly decreased the swimming speed | training, swimming speed ([2]; small hippocampus mice): Neither rivastigmine nor nicotine had any significant effect | transfer test, spatial bias ([2]; small hippocampus mice): complete spatial bias | training, path length ([2]; small hippocampus mice, AF150(S) both doses, AF267B the higher dose): positively affected the performance | training, escape latency [2, 3]: positively affected the training performance

From patent US7439251B2, “Methods and compositions for treatment of central and peripheral nervous system disorders and novel compounds useful therefor” (Israel Institute for Biological Research, priority 2002, dated 2008)
